# Measured values: publication PMC5028882, “Antiviral activities of peptide-based covalent inhibitors of the Enterovirus 71 3C protease” (Scientific Reports, 2016)
# Entries after “also recorded” stand apart in the source; their conditions may differ. Where two headings read alike, the source gives them in different places.
# Assays:
# Coxsackievirus A6 (CA6) = experiment: Antiviral assay, Coxsackievirus A6-infected RD cells; type: cell-based; settings: 100 nM and 1 μM, virus titre after 12 hours
# Experimental: (§1) RD cells were infected with either Coxsackievirus A6 (CA6), Coxsackievirus A16 (CA16) (strain G-10, GenBank accession no. U05876), patient isolates of Coxsackievirus A6 (CA6), or Echovirus 7 (E7) and subjected to treatment with compound 9 at 100 nM or 1 μM or negative control 0.05% DMSO.
# (§2) Human RD cells were cultured in DMEM/F-12 (Gibco) supplemented with 10% FBS (GE Healthcare) and the infection medium used for all infections and compound treatment contained was supplemented with 2% FBS. For the compound treatment assays, monolayers of RD cells were first infected with EV71 at a multiplicity of infection (MOI) of 1 for 1 hour at 37 °C, 5% CO2. The compounds were then introduced to the cells at different concentrations. Culture supernatant was collected at 12 hours post-treatment for determination of infectious virus titre by viral plaque assay. Each culture supernatant was 10-fold serially diluted and 100 μL was added, in triplicates, to a monolayer of RD cells in a 24-well format. The infection was allowed to proceed for 1 h at 37 °C, 5% CO2 before the virus was removed. The cells were then washed to remove unbound virus particles with PBS (pH 7.4) and overlaid with infection medium containing 0.5% agarose. […] Plaques that formed were counted visually and the infectious virus titre was calculated, expressed as the average number of PFU per milliliter (PFU/mL) of sample. […]
# EV71 3C protease [1] = molecular target: T1, EV71 3C protease (Human enterovirus 71, UniProt Q66478); settings: cited from earlier work; for IC50: EV71 3C protease (strain 5865/sin/000009), biochemical protease inhibition assay, read-out: Inhibitory Potency, IC50
# T1 sequence (Q66478 1549-1731): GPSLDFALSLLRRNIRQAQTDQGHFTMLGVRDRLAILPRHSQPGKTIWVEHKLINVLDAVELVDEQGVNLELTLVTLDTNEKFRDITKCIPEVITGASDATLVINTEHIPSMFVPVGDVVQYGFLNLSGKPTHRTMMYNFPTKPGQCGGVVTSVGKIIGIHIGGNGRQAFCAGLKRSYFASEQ
# Echovirus 7 (E7) = experiment: Antiviral assay, Echovirus 7-infected RD cells; type: cell-based; settings: 100 nM and 1 μM, virus titre after 12 hours
# Experimental: as §1, §2
# [2] = test system: Coxsackievirus A16 (CA16); experiment: Antiviral assay, Coxsackievirus A16-infected RD cells; type: cell-based; settings: 100 nM and 1 μM, virus titre after 12 hours
# Experimental: as §1, §2
# [3] = test system: EV71-infected human RD cells; experiment: Antiviral cellular assay, EV71-infected RD cells, virus titre by plaque assay; type: cell-based, human enterovirus 71 (EV71); settings: for EC50: Enterovirus A, read-out: EC50 for EV71 infections; for Antiviral activity on EV71-infected RD cells (in words): virus titre reduction, up to 5 μM, 12 h
# Experimental: Human RD cells were cultured in DMEM/F-12 (Gibco) supplemented with 10% FBS (GE Healthcare) and the infection medium used for all infections and compound treatment contained was supplemented with 2% FBS. For the compound treatment assays, monolayers of RD cells were first infected with EV71 at a multiplicity of infection (MOI) of 1 for 1 hour at 37 °C, 5% CO2. The compounds were then introduced to the cells at different concentrations. Culture supernatant was collected at 12 hours post-treatment for determination of infectious virus titre by viral plaque assay. Each culture supernatant was 10-fold serially diluted and 100 μL was added, in triplicates, to a monolayer of RD cells in a 24-well format. The infection was allowed to proceed for 1 h at 37 °C, 5% CO2 before the virus was removed. The cells were then washed to remove unbound virus particles with PBS (pH 7.4) and overlaid with infection medium containing 0.5% agarose. The cells were incubated for 48 hours at 37 °C before they were fixed with 4% paraformaldehyde and stained with crystal violet. Plaques that formed were counted visually and the infectious virus titre was calculated, expressed as the average number of PFU per milliliter (PFU/mL) of sample. The 50% effective concentration, EC50, was determined for selected compounds by a non-linear regression graph fitting of the virus titre obtained at a minimum of 5 different compound concentrations and 0.05% DMSO was included as an untreated control.
# [4] = Parallel artificial membrane permeability assay (PAMPA); type: in vitro ADME; settings: for Papp at 4 h, 50 μM: pH 7.4, 50 μM, 4 h incubation, read-out: Permeability (P) at pH 7.4
# Experimental: PAMPA was conducted by GVK Biosciences (India) using Pion PAMPA Sandwich Plates (Pion Inc., USA). Briefly: test compounds were dissolved in buffer at pH 7.4 to make a 50 μM stock solution. 200 μL was then added to the donor compartment of the plate. The plate was inverted and 200 μL of buffer (pH 7.4) was added to the acceptor compartment. After incubation (4 hours), a 50 μL sample was analyzed by UV using a spectrophotometer. Experiments were conducted in triplicates. Compound permeability (P) was calculated using the formula:
# where: CA = compound concentration in the acceptor compartment at 4 h, Ceq = compound concentration at equilibrium at 4 h, A = filter area (0.3 cm^2), VA = acceptor compartment volume (200 μL), VD = donor compartment volume (200 μL), t = incubation time (14,400 s). Compounds with a P value of <10 × 10^−6 cm.s^−1 are considered to have low permeability.
# EV71 3C protease [5] = molecular target: T1, EV71 3C protease; experiment: EV71 3C protease inhibition assay (chromogenic substrate succinyl-EALFQ-pNA); type: biochemical; settings: EV71 3C protease 6 μM, 2 h preincubation at 25 °C, pH 7.0; read-out: Inhibitory Potency, IC50
# Experimental: EV71 3C protease inhibition assays were based on a published procedure[7] and performed in a buffer containing Tris-HCl (50 mM), NaCl (150 mM), EDTA (1 mM), glycerol (10% v/v) and DTT (2 mM) at pH 7.0. The protease (6 μM) and varying inhibitor concentrations were incubated at 25 °C for 2 h. The final DMSO concentration was maintained at 2%. After that, the chromogenic peptide substrate succinyl-EALFQ-pNA (Peptides International, USA) was added to make a final concentration of 200 μM. The contents were incubated at 25 °C for 2 h. Absorbance at 405 nm was measured with a plate reader at 30 °C. All experiments were conducted in duplicates. IC50 values were derived by fitting the initial velocity against the log [inhibitor] using GraphPad Prism 5 software (USA).
SMILES,Antiviral activity on EV71-infected RD cells (in words) [3],"Papp at 4 h, 50 μM [4]",IC50 (EV71 3C protease [5]),further results
"CCOC(=O)/C=C/[C@H](C[C@@H]1CCNC1=O)NC(=O)[C@@H](CC(=O)[C@@H](NC(=O)c1cc(C)on1)C(C)C)Cc1ccc(F)cc1 [Compound 1, Rupintrivir, reference compound]",significant reduction in viral titre,46.9 ± 4.7 ×10⁻⁶ cm/s,,"Antiviral activity against Coxsackievirus A6 (in words) (Coxsackievirus A6 (CA6)): demonstrated antiviral activities; IC50 (EV71 3C protease [1]): 7.3 ± 0.8 µM; Inhibition of EV71 3C protease (in words) (EV71 3C protease [1]; earlier reports): micromolar potency; Antiviral activity against Echovirus 7 (in words) (Echovirus 7 (E7)): demonstrated antiviral activities; Antiviral activity against Coxsackievirus A16 (in words) [2]: demonstrated antiviral activities; EC50 ([3]; EV71-infected RD cells, virus titre by plaque assay): 16 nM; Membrane permeability (in words) ([4]; pH 7.4): highly membrane permeable"
CCOC(=O)/C=C/[C@H](C[C@@H]1CCNC1=O)NC(=O)[C@@H]1[C@@H](c2ccccc2)CCN1C(=O)[C@@H](NC(=O)c1cc(C)on1)C(C)C [Compound 2],failed to demonstrate significant antiviral activity; also recorded: weakly active,7.1 ± 0.9 ×10⁻⁶ cm/s,,IC50 (EV71 3C protease [1]): 3.2 ± 0.5 µM; Fold more potent than Rupintrivir in the protease inhibition assay (EV71 3C protease [1]; IC50 compared with Rupintrivir): 2 fold; Fold less permeable than Rupintrivir ([4]; pH 7.4): approximately 7 fold
CCOC(=O)/C=C/[C@H](C[C@@H]1CCNC1=O)NC(=O)[C@H](Cc1ccc(F)cc1)NC(=O)[C@@H](NC(=O)c1cc(C)on1)C(C)C [Compound 3],significantly less potent than Rupintrivir,25.1 ± 3.6 ×10⁻⁶ cm/s,6.2 ± 0.6 µM,Fold less permeable than Rupintrivir ([4]; pH 7.4): approximately 2 fold
"CCOC(=O)/C=C/[C@H](C[C@@H]1CCNC1=O)NC(=O)[C@@H](CC(=O)[C@@H](NC(=O)c1cccnn1)C(C)C)Cc1ccc(F)cc1 [Compound 4, ethyl-(S,E)-4-(2R,5S)-2-(4-fluorobenzyl)-6-methyl-4-oxo-5-pyridazine-3-carboxamidoheptanamido-5-(S)-2-oxopyrrolidin-3-yl-pent-2-enoate]",significantly reduced,12.6 ± 1.8 ×10⁻⁶ cm/s,9.3 ± 0.6 µM,
"CCOC(=O)/C=C/[C@H](C[C@@H]1CCNC1=O)NC(=O)[C@@H](CC(=O)[C@@H](NC(=O)c1ccccn1)C(C)C)Cc1ccc(F)cc1 [Compound 5, ethyl-(S,E)-4-(2R,5S)-2-(4-fluorobenzyl)-6-methyl-4-oxo-5-picolinamidoheptanamido-5-(S)-2-oxopyrrolidin-3-yl-pent-2-enoate]",did not exhibit significant antiviral activity,14.9 ± 3.3 ×10⁻⁶ cm/s,22.4 ± 3.5 µM,
"CCOC(=O)/C=C/[C@H](C[C@@H]1CCNC1=O)NC(=O)[C@@H](CC(=O)[C@@H](NC(=O)c1cccnc1)C(C)C)Cc1ccc(F)cc1 [Compound 6, ethyl-(S,E)-4-(2R,5S)-2-(4-fluorobenzyl)-6-methyl-5-nicotinamido-4-oxoheptanamido-5-(S)-2-oxopyrrolidin-3-yl-pent-2-enoate]",did not exhibit significant antiviral activity,16.9 ± 5.2 ×10⁻⁶ cm/s,> 100 µM,
"CCOC(=O)/C=C/[C@H](C[C@@H]1CCNC1=O)NC(=O)[C@@H](CC(=O)[C@@H](NC(=O)c1nnccc1C)C(C)C)Cc1ccc(F)cc1 [Compound 7, ethyl-(S,E)-4-(2R,5S)-2-(4-fluorobenzyl)-6-methyl-5-(4-methylpyridazine-3-carboxamido)-4-oxoheptanamido-5-(S)-2-oxopyrrolidin-3-yl-pent-2-enoate]",inferior compared to Rupintrivir; also recorded: failed to demonstrate significant antiviral activity,11.6 ± 2.3 ×10⁻⁶ cm/s,5.2 ± 1 µM,
"CCOC(=O)/C=C/[C@H](C[C@@H]1CCNC1=O)NC(=O)[C@@H](CC(=O)[C@@H](NC(=O)c1ccc(C)nn1)C(C)C)Cc1ccc(F)cc1 [Compound 8, ethyl-(S,E)-4-(2R,5S)-2-(4-fluorobenzyl)-6-methyl-5-(6-methylpyridazine-3-carboxamido)-4-oxoheptanamido-5-(S)-2-oxopyrrolidin-3-yl-pent-2-enoate]",inferior compared to Rupintrivir; also recorded: failed to demonstrate significant antiviral activity,12.6 ± 0.7 ×10⁻⁶ cm/s,3.7 ± 0.6 µM,
CCOC(=O)/C=C/[C@H](C[C@@H]1CCNC1=O)NC(=O)[C@@H](CC(=O)[C@@H](NC(=O)C(F)(F)F)C(C)C)Cc1ccc(F)cc1 [Compound 9],exhibited antiviral activity; also recorded: potent antiviral activity,32.7 ± 6.7 ×10⁻⁶ cm/s,7.7 ± 0.8 µM,"Antiviral activity against Coxsackievirus A6 (in words) (Coxsackievirus A6 (CA6)): potent antiviral activity; also recorded: demonstrated antiviral activities; Antiviral activity against Echovirus 7 (in words) (Echovirus 7 (E7)): potent antiviral activity; also recorded: demonstrated antiviral activities; Antiviral activity against Coxsackievirus A16 (in words) [2]: potent antiviral activity; also recorded: demonstrated antiviral activities; EC50 ([3]; EV71, RD): 65 nM"
"CCOC(=O)/C=C/[C@H](C[C@@H]1CCNC1=O)NC(=O)[C@@H](CC(=O)[C@@H](NC(=O)C(C)(C)C)C(C)C)Cc1ccc(F)cc1 [Compound 10, ethyl-(S,E)-4-(2R,5S)-2-(4-fluorobenzyl)-6-methyl-4-oxo-5-pivalamidoheptanamido-5-(S)-2-oxopyrrolidin-3-yl-pent-2-enoate]",abrogation of both biochemical and cellular activity,15 ± 2.6 ×10⁻⁶ cm/s,> 100 µM,
"CCOC(=O)/C=C/[C@H](C[C@@H]1CCNC1=O)NC(=O)[C@@H](CC(=O)[C@@H](NC(=O)C(C)C)C(C)C)Cc1ccc(F)cc1 [Compound 11, ethyl-(S,E)-4-(2R,5S)-2-(4-fluorobenzyl)-5-isobutyramido-6-methyl-4-oxoheptanamido-5-(S)-2-oxopyrrolidin-3-yl-pent-2-enoate]",significantly reduced antiviral activity,16.9 ± 0.8 ×10⁻⁶ cm/s,11.7 ± 0.7 µM,
